molecular target: Urokinase-type plasminogen activator (Homo sapiens) (UniProt P00749); assay: Binding affinity to uPA

Q: For `N#Cc1cc(-c2ccccc2)n(Cc2nc3ccccc3[nH]2)c1N`, which Ki is on record?
A: Its Ki is 1 pM.

Q: How did the Ki turn out when `N#Cc1cc(-c2ccccc2)n(-c2ccc(Cl)cc2)c1N` was run?
A: Its Ki is 3 pM.

Q: `N#Cc1cc(-c2ccccc2)n(-c2ccc(Br)cc2)c1N` was tested. Which Ki did it give?
A: The Ki was 3 pM.
